Laboratory results: patent US9101539B2, “Intranasal pharmaceutical compositions with improved pharmacokinetics” (SHIN NIPPON BIOMEDICAL LABORATORIES, LTD., priority 2009, dated 2015)
Values belong to the compound of their own block, whether it stands above or below them.

Columns and labels:
in vivo = conditions: rhesus monkey, inhaled or intranasal
Method: Blood was obtained at 10, 20, 30, 60, 120, 240, and 480 minutes post-administration from the monkeys administered the solid dosage form. For the monkeys treated with the nasal spray, blood was obtained 5, 10, 20, 30, 60, 120, 240, and 480 minutes post-treatment.
Blood was obtained at 5, 10, 20, 30, 60, 120, and 240 minutes post-administration.
Administered dose was 6 mg/animal. […] Blood was obtained at 5, 10, 20, 30, 60, 120, and 240 minutes post-administration.
(§1) Administered dose was 6 mg/animal. […] Administered dose was 6 mg/animal. Blood was obtained at 5, 10, 20, 30, 60, 120, and 240 minutes post-administration.
Total dose was 6 mg/animal. Blood was obtained at 5, 10, 20, 30, 60, 120, and 240 minutes post-administration.
as §1, §1
(§2) Administered dose was 6 mg/animal. […] Administered dose was 6 mg/animal. […] Blood was obtained at 5, 10, 20, 30, 60, 120, and 240 minutes post-administration.
as §2

[1] = Zolmitriptan pharmacokinetics (plasma concentration versus time) in rhesus monkeys; assay type: in vivo; conditions: 5 mg/animal; for Tmax: intranasal dry powder, n=2
Method: The pharmacokinetics of a zolmitriptan liquid nasal spray and a dry powder formulation were studied in two groups of rhesus monkeys. One group, n=2, was administered a nasal spray of zolmitriptan (Zomig®, 5 mg/100 μl in an aqueous buffered solution). A second, n=2, was administered intranasal zolmitriptan freebase with a particle size of <15 μm. The administered dose was 5 mg/animal.
One group, n=2, was administered intranasal zolmitriptan freebase with a particle size of <15 μm. Administered dose was 5 mg/animal. […] Administered dose was 5 mg/animal.

[2] = intranasal dry powder <15 μm, versus Zomig nasal spray

- Cmax among the formulations tested that contained freebase (in vivo): highest
SMILES: CNS(=O)(=O)Cc1ccc2[nH]cc(CCN(C)C)c2c1 [sumatriptan freebase]

- Cmax (in vivo; 6 mg, Cmax): 696 ng/mL
- Tmax (in vivo; 6 mg, Tmax): 7.5 min
SMILES: CNS(=O)(=O)Cc1ccc2[nH]cc(CCN(C)C)c2c1 [sumatriptan succinate]

- BA compared with the liquid spray [1, 2]: significantly increased
- Cmax compared with the liquid spray [1, 2]: significantly increased
- Tmax ([1]; 50% of the particles <15 μm and 50% 38 μm-100 μm): 20 min
- Tmax ([1]; particle size <15 μm): 10 min
SMILES: CN(C)CCc1c[nH]c2ccc(C[C@H]3COC(=O)N3)cc12 [zolmitriptan freebase]
